Measurements: ChEMBL document CHEMBL4321812, “Structure-based rational design of staurosporine-based fluorescent probe with broad-ranging kinase affinity for kinase panel application” (Bioorg Med Chem Lett, 2019)

Tests used:
[1] = biological target: Phosphorylase b kinase gamma catalytic chain, skeletal muscle/heart isoform (Homo sapiens, UniProt Q16816); test: Binding affinity to recombinant full-length N-terminal His-FLAG-GST-tagged PHKG1 (unknown origin) expressed in baculovirus infected Sf9 insect cells incubated for 1 hr by TR-FRET assay
[2] = biological target: Tyrosine-protein kinase ITK/TSK (Homo sapiens, UniProt Q08881); test: Binding affinity to recombinant human full-length N-terminal GST-tagged ITK expressed in baculovirus expression system using srctide as substrate incubated for 1 hr by TR-FRET assay
[3] = biological target: Serine/threonine-protein kinase LATS2 (Homo sapiens, UniProt Q9NRM7); test: Binding affinity to recombinant full-length N-terminal His-FLAG-GST-tagged LATS2 (unknown origin) (553 to 1088 residues) expressed in baculovirus infected Sf9 insect cells incubated for 1 hr by TR-FRET assay
[4] = biological target: Tyrosine-protein kinase SYK (Homo sapiens, UniProt P43405); test: Binding affinity to recombinant human full-length N-terminal GST-tagged SYK expressed in baculovirus expression system using Blk/Lyntide as substrate incubated for 1 hr by TR-FRET assay
[5] = biological target: Fibroblast growth factor receptor 2 (Homo sapiens, UniProt P21802); test: Binding affinity to recombinant N-terminal His-FLAG-GST-tagged FGFR2 (unknown origin) (399 to 821 residues) expressed in baculovirus infected Sf9 insect cells incubated for 1 hr by TR-FRET assay
[6] = biological target: Mitogen-activated protein kinase kinase kinase kinase 1 (Homo sapiens, UniProt Q92918); test: Binding affinity to recombinant N-terminal His-FLAG-GST-tagged MAP4K1 (unknown origin) (1 to 346 residues) expressed in baculovirus infected Sf9 insect cells incubated for 1 hr by TR-FRET assay
[7] = biological target: Dual specificity protein kinase CLK1 (Homo sapiens, UniProt P49759); test: Binding affinity to recombinant N-terminal His-FLAG-GST-tagged CLK1 (unknown origin) (129 to 484 residues) expressed in baculovirus infected Sf9 insect cells incubated for 1 hr by TR-FRET assay
[8] = biological target: MAP kinase-interacting serine/threonine-protein kinase 2 (Homo sapiens, UniProt Q9HBH9); test: Binding affinity to recombinant human full-length N-terminal GST-tagged MKNK2 expressed in baculovirus expression system using RS peptide as substrate incubated for 1 hr by TR-FRET assay
[9] = biological target: Calcium/calmodulin-dependent protein kinase kinase 1 (Homo sapiens, UniProt Q8N5S9); test: Binding affinity to recombinant full-length N-terminal His-FLAG-GST-tagged CAMKK1 (unknown origin) expressed in baculovirus infected Sf9 insect cells incubated for 1 hr in presence of calmodulin by TR-FRET assay
[10] = biological target: Tyrosine-protein kinase CSK (Homo sapiens, UniProt P41240); test: Binding affinity to recombinant full-length N-terminal His-FLAG-tagged CSK (unknown origin) expressed in baculovirus infected Sf9 insect cells incubated for 1 hr by TR-FRET assay
[11] = biological target: Mitogen-activated protein kinase 12 (Homo sapiens, UniProt P53778); test: Binding affinity to recombinant full-length N-terminal His-FLAG-GST-tagged MAPK12 (unknown origin) expressed in baculovirus infected Sf9 insect cells incubated for 1 hr by TR-FRET assay
[12] = biological target: Tyrosine-protein kinase HCK (Homo sapiens, UniProt P08631); test: Binding affinity to recombinant full-length N-terminal His-FLAG-GST-tagged HCK (unknown origin) (25 to 526 residues) expressed in baculovirus infected Sf9 insect cells incubated for 1 hr by TR-FRET assay
[13] = biological target: Serine/threonine-protein kinase Sgk3 (Homo sapiens, UniProt Q96BR1); test: Binding affinity to recombinant full-length N-terminal His-FLAG-GST-tagged SGK3 (unknown origin) (119 to 496 residues) expressed in baculovirus infected Sf9 insect cells incubated for 1 hr by TR-FRET assay
Ephrin type-A receptor 1 = Ephrin type-A receptor 1 (Homo sapiens, UniProt P21709); test: Binding affinity to recombinant full-length N-terminal His-FLAG-GST-tagged EPHA1 (unknown origin) (586 to 976 residues) expressed in baculovirus infected Sf9 insect cells incubated for 1 hr by TR-FRET assay
[14] = biological target: 3-phosphoinositide-dependent protein kinase 1 (Homo sapiens, UniProt O15530); test: Binding affinity to recombinant full-length N-terminal His-FLAG-GST-tagged PDPK1 (unknown origin) expressed in baculovirus infected Sf9 insect cells incubated for 1 hr by TR-FRET assay
[15] = biological target: Tyrosine-protein kinase JAK3 (Homo sapiens, UniProt P52333); test: Binding affinity to recombinant full-length N-terminal His-FLAG-GST-tagged JAK3 (unknown origin) (795 to 1124 residues) expressed in baculovirus infected Sf9 insect cells incubated for 1 hr by TR-FRET assay
[16] = biological target: Serine/threonine-protein kinase TAO3 (Homo sapiens, UniProt Q9H2K8); test: Binding affinity to recombinant human full length N-terminal GST-tagged TAOK3 expressed in baculovirus expression system using PKC-epsilon peptide as substrate incubated for 1 hr by TR-FRET assay
[17] = biological target: cGMP-dependent protein kinase 1 (Homo sapiens, UniProt Q13976); test: Binding affinity to recombinant full-length N-terminal His-FLAG-tagged PRKG1 (unknown origin) expressed in baculovirus infected Sf9 insect cells incubated for 1 hr by TR-FRET assay
[18] = biological target: Vascular endothelial growth factor receptor 2 (Homo sapiens, UniProt P35968); test: Binding affinity to recombinant human full length N-terminal GST-tagged KDR (790 to 1356 residues) expressed in baculovirus expression system using CSKtide as substrate incubated for 1 hr by TR-FRET assay
[19] = biological target: Serine/threonine-protein kinase TAO1 (Homo sapiens, UniProt Q7L7X3); test: Binding affinity to recombinant full-length N-terminal His-FLAG-GST-tagged TAOK1 (unknown origin) (1 to 314 residues) expressed in baculovirus infected Sf9 insect cells incubated for 1 hr by TR-FRET assay
[20] = biological target: Serine/threonine-protein kinase TBK1 (Homo sapiens, UniProt Q9UHD2); test: Binding affinity to recombinant human full length N-terminal GST-tagged TBK1 expressed in baculovirus expression system using CKtide as substrate incubated for 1 hr by TR-FRET assay
[21] = biological target: Ribosomal protein S6 kinase alpha-2 (Homo sapiens, UniProt Q15349); test: Binding affinity to recombinant human full length N-terminal GST-tagged RPS6KA2 expressed in baculovirus expression system using S6K peptide as substrate incubated for 1 hr by TR-FRET assay
[22] = biological target: Ribosomal protein S6 kinase beta-1 (Homo sapiens, UniProt P23443, T412E); test: Binding affinity to recombinant human full length N-terminal GST-tagged RPS6KB1 T412E mutant expressed in baculovirus expression system using S6K2 peptide as substrate incubated for 1 hr by TR-FRET assay
[23] = biological target: Protein kinase C delta type (Homo sapiens, UniProt Q05655); test: Binding affinity to recombinant human full length N-terminal GST-tagged PRKCD expressed in baculovirus expression system using PKC peptide as substrate incubated for 1 hr by TR-FRET assay

Sequence of Serine/threonine-protein kinase TAO3 (Q9H2K8 whole entry): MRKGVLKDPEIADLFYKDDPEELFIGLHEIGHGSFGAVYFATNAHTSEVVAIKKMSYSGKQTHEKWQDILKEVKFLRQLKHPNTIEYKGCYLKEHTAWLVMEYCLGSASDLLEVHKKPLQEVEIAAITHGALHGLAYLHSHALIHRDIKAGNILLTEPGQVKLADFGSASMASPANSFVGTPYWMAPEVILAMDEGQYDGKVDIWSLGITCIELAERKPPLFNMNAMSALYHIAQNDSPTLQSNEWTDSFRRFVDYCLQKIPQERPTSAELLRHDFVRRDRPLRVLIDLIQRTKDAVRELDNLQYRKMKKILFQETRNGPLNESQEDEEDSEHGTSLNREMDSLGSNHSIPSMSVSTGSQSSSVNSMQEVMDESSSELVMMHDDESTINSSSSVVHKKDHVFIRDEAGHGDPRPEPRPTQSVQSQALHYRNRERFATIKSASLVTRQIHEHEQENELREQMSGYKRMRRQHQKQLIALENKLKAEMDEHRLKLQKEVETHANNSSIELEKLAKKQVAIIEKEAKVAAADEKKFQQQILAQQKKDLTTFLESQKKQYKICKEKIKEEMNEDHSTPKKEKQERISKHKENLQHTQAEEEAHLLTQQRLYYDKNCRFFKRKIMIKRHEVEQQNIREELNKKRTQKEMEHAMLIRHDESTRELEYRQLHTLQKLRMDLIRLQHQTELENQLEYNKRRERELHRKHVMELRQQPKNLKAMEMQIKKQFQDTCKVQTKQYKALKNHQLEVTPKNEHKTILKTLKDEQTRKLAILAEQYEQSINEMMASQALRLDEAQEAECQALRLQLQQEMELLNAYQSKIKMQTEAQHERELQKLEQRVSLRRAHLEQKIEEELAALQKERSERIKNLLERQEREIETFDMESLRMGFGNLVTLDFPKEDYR
Sequence of Tyrosine-protein kinase CSK (P41240 whole entry): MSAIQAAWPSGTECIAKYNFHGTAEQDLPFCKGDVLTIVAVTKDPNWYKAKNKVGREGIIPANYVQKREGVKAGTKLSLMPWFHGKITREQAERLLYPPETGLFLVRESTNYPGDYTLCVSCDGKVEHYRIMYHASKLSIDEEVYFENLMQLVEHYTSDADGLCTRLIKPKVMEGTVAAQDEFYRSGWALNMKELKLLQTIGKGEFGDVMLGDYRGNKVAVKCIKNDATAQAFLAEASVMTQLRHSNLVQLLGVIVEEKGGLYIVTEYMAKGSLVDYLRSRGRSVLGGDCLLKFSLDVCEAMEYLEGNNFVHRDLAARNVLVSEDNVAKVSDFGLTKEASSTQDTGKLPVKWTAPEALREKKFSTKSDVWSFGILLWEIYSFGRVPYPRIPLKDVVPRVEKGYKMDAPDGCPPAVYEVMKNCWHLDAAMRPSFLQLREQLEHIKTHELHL
Sequence of Mitogen-activated protein kinase kinase kinase kinase 1 (Q92918 whole entry, the tested form may be a part): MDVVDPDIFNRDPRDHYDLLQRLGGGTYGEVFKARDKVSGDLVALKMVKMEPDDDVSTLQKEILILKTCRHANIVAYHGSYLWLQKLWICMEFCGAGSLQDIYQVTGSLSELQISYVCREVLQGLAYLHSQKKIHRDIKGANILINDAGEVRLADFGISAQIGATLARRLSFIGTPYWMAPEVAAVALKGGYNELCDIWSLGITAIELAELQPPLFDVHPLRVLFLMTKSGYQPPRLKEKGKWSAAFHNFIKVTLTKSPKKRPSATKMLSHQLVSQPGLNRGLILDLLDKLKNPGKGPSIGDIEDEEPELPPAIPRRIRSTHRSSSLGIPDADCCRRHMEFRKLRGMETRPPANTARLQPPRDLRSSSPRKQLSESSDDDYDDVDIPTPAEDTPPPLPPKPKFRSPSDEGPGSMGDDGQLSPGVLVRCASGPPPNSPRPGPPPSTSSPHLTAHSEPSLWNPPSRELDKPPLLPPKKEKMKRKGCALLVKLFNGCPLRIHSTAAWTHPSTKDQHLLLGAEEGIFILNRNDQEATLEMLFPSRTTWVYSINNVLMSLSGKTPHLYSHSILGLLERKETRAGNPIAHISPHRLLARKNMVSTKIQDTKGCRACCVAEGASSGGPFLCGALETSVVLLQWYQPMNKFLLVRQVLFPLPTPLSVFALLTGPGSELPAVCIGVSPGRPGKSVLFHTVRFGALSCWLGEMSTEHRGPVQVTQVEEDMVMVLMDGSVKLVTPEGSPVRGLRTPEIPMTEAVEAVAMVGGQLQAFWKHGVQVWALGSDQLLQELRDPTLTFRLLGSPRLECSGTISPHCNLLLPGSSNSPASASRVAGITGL
Sequence of Tyrosine-protein kinase HCK (P08631 whole entry, the tested form may be a part): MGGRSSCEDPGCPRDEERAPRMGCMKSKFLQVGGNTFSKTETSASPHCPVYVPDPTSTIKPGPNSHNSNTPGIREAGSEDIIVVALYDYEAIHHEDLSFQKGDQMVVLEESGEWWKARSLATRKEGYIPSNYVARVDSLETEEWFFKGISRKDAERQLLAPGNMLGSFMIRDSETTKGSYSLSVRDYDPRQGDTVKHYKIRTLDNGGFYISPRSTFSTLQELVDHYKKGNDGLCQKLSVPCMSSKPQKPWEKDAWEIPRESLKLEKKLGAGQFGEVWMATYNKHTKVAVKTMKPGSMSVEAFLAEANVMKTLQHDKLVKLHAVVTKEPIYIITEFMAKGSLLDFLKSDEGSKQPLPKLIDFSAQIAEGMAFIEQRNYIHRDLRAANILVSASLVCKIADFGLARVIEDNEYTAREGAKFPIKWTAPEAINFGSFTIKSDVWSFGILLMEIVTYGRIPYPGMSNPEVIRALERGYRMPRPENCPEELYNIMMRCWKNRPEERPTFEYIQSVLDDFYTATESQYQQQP
Sequence of Serine/threonine-protein kinase Sgk3 (Q96BR1 whole entry, the tested form may be a part): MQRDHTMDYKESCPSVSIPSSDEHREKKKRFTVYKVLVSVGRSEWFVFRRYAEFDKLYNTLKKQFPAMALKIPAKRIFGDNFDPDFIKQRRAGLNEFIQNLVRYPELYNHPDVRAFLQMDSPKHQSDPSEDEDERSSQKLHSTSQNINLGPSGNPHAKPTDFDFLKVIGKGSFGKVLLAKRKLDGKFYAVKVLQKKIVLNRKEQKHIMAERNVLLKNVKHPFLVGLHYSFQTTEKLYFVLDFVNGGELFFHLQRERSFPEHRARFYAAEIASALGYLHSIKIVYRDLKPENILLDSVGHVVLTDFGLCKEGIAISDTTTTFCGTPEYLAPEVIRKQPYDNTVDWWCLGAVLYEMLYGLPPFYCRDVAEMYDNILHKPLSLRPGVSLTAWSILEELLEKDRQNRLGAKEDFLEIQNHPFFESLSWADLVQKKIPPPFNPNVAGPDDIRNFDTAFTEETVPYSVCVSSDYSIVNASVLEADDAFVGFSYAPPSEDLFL
Sequence of Ribosomal protein S6 kinase alpha-2 (Q15349 whole entry): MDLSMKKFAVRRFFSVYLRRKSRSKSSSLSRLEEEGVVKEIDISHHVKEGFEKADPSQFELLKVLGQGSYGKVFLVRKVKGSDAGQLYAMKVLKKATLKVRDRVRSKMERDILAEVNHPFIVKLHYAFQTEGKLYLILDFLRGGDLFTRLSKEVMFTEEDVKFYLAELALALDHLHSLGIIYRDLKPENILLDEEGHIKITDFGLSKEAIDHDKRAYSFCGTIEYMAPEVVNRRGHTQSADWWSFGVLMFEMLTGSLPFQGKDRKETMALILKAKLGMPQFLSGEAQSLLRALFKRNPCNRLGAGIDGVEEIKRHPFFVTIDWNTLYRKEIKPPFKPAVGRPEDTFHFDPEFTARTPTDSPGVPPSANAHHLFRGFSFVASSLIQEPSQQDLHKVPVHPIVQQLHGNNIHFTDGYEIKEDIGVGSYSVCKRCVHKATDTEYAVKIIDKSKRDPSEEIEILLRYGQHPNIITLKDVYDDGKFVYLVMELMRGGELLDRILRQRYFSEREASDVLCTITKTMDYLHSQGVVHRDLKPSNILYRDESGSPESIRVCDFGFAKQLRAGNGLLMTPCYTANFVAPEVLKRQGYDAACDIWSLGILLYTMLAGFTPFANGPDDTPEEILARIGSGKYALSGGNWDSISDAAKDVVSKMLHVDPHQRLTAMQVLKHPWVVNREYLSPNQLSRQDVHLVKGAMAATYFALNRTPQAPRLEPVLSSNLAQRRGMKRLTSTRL
Sequence of Calcium/calmodulin-dependent protein kinase kinase 1 (Q8N5S9 whole entry): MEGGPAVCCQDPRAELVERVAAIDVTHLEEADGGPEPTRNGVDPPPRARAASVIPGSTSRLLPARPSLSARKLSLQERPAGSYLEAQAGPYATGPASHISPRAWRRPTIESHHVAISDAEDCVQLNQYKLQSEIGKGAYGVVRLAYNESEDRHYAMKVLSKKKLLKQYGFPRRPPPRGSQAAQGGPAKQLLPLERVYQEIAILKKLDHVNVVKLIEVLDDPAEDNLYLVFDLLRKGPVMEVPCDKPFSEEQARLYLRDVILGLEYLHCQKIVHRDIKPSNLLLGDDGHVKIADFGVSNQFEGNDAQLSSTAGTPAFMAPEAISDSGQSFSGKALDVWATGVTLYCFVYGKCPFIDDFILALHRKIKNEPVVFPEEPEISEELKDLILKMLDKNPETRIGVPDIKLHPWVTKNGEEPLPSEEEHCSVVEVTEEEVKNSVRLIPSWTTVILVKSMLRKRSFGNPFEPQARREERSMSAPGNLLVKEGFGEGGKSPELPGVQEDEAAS
Sequence of 3-phosphoinositide-dependent protein kinase 1 (O15530 whole entry, the tested form may be a part): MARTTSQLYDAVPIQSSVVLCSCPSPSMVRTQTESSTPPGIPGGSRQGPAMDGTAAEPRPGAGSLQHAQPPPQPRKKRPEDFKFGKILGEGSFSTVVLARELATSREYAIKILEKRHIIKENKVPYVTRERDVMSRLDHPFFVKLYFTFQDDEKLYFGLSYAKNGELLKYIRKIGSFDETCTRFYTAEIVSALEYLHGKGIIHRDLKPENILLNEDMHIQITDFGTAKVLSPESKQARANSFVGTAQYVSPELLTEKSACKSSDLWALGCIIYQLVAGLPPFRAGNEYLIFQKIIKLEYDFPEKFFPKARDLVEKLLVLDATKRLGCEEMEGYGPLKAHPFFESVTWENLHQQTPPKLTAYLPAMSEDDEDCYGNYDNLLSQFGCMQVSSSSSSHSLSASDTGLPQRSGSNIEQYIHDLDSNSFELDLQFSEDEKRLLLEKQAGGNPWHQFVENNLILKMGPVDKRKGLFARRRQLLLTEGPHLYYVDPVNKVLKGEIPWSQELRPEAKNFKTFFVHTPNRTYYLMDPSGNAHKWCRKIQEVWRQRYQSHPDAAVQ

SMILES	Kd [1] [nM]	Kd [2] [nM]	Kd [3] [nM]	Kd [4] [nM]	Kd [5] [nM]	Kd [6] [nM]	Kd [7] [nM]	Kd [8] [nM]	Kd [9] [nM]	Kd [10] [nM]	Kd [11] [nM]	Kd [12] [nM]	Kd [13] [nM]	Kd (Ephrin type-A receptor 1) [nM]	Kd [14] [nM]	Kd [15] [nM]	Kd [16] [nM]	Kd [17] [nM]	Kd [18] [nM]	Kd [19] [nM]	other results
CO[C@@H]1[C@H](NCCOCCOCCOCCNC(=O)CCC2=[N+]3C(=Cc4c(C)cc(C)n4[B-]3(F)F)C=C2)C[C@H]2O[C@]1(C)n1c3ccccc3c3c4c(c5c6ccccc6n2c5c31)C(=O)NC4	1	379	135	26	242	17	93	162	11	879	948	263	322	586	8	14	360	109	193	25	Kd [20]: 17 nM; Kd [21]: 8 nM; Kd [22]: 40 nM; Kd [23]: 13 nM
CO[C@@H]1[C@H](N(C)CCOCCOCCOCCNC(=O)CCC2=[N+]3C(=Cc4c(C)cc(C)n4[B-]3(F)F)C=C2)C[C@H]2O[C@]1(C)n1c3ccccc3c3c4c(c5c6ccccc6n2c5c31)C(=O)NC4	3	765	223	41	361	24	125	205	14	1010	1020	280	338	588	8	13	293	85	135	15	Kd [20]: 9 nM; Kd [21]: 4 nM; Kd [22]: 13 nM; Kd [23]: 3 nM
